Converted amounts (≈) assume the structure as drawn.

For test [1], the system named is Staphylococcus aureus SA1199A. Put plainly: MIC, standard broth micro-dilution assay. It is filed as cell-based. As for the experimental part:
(§1) The MIC's were determined using a standard broth micro-dilution assay.

Test [2] has as its system Staphylococcus aureus SA1199. Put plainly: MIC, standard broth micro-dilution assay. Type of test: cell-based. How it is done:
as §1
In general terms: Broth dilution looks for growth in wells or tubes with falling amounts of substance.

For test [3], the system named is Staphylococcus aureus 446. Description: MIC, standard broth micro-dilution assay. Type of test: cell-based. How it is done: as §1
Test [4] has as its system Staphylococcus aureus X400. Put plainly: MIC, standard broth micro-dilution assay. Type of test: cell-based. How it is done:
as §1

The test system of a further test is Entercoccus faecium 180. Description: MIC, standard broth micro-dilution assay. Type of test: cell-based. How it is done: as §1
For test [5], the system named is Staphylococcus aureus 491. Put plainly: MIC, standard broth micro-dilution assay. Type of test: cell-based. As for the experimental part:
as §1

The subject of test [6] is Staphylococcus aureus 489. Put plainly: MIC, standard broth micro-dilution assay. It is filed as cell-based. As for the experimental part:
as §1

The test system of test [7] is Streptococcus pneumoniae P1. Description: MIC, standard broth micro-dilution assay. It is filed as cell-based. How it is done:
as §1

The subject of test [8] is Entercoccus faecium 180-1. Put plainly: MIC, standard broth micro-dilution assay. Type of test: cell-based. How it is done:
as §1

The subject of test [9] is Staphylococcus epidermidis 270. Put plainly: MIC, standard broth micro-dilution assay. It is filed as cell-based. As for the experimental part:
as §1

For test [10], the system named is Staphylococcus haemolyticus 415. Description: MIC, standard broth micro-dilution assay. It is filed as cell-based. As for the experimental part: as §1
The next test relates to Escherichia coli EC14. Description: MIC, standard broth micro-dilution assay. It is filed as cell-based. How it is done: as §1
Test [11] concerns Staphylococcus aureus 447. Put plainly: MIC, standard broth micro-dilution assay. Type of test: cell-based. How it is done: as §1
Test [12] concerns Staphylococcus haemolyticus 105. Put plainly: MIC, standard broth micro-dilution assay. It is filed as cell-based. How it is done: as §1
In test [13] the test system is Streptococcus pyogenes C203. Description: MIC, standard broth micro-dilution assay. Type of test: cell-based. How it is done: as §1
Test [14] concerns Staphylococcus aureus X778. Description: MIC, standard broth micro-dilution assay. Type of test: cell-based. How it is done:
as §1

In another test the test system is Pedicoccus acidilacti. Put plainly: MIC, agar dilution on brain-heart infusion agar. Type of test: cell-based. The conditions noted are these: Pedioccccus acidilacti (mean of 10). On the technique in general: Agar dilution tests growth on a series of plates holding different concentrations.
The next test deals with Pediococcus pentosaceus. Put plainly: MIC, agar dilution on brain-heart infusion agar. Conditions: Pediococcus pentosaceus (mean of 2). Type of test: cell-based.
The test system of a further test is Leuconostoc lactis. Put plainly: MIC, agar dilution on brain-heart infusion agar. The conditions noted are these: Leuconostoc lactis (mean of 2). Type of test: cell-based.
Test [15] has as its system Staphylococcus aureus S13E. Type of test: cell-based. As for the experimental part: as §1
For test [16], the system named is Staphylococcus aureus SA1199B. It is filed as cell-based. As for the experimental part:
as §1

The test system of test [17] is Leuconostoc mesenteroides. Put plainly: MIC, agar dilution on brain-heart infusion agar. It is filed as cell-based. Conditions: Leuconostoc mesenteroides (mean of 4).
The subject of the next test is Entercoccus faecalis 276. Put plainly: MIC, standard broth micro-dilution assay. It is filed as cell-based. As for the experimental part: (§2) The formula I compounds have in vitro and in vivo activity against Gram-positive pathogenic bacteria. The MIC's were determined using a standard broth micro-dilution assay.
In test [18] the test system is Entercoccus gallinarum 245. Put plainly: MIC, standard broth micro-dilution assay. Type of test: cell-based. How it is done: as §2
For test [19], the system named is Entercoccus faecalis 2041. Put plainly: MIC, standard broth micro-dilution assay. Type of test: cell-based. How it is done: as §2
The subject of the next test is Lactobacillus confusus. Description: MIC, agar dilution on brain-heart infusion agar. It is filed as cell-based.
In test [20] the test system is Haemophilus influenzae RD. Description: MIC, standard broth micro-dilution assay. It is filed as cell-based. As for the experimental part: as §1
The next test deals with Streptococcus pyogenes. Description: ED50 in experimentally infected mice. It is filed as in vivo. The conditions noted are these: mice infected with Streptococcus pyogenes, two doses.
The subject of test [21] is vancomycin-susceptibie enterococci (Enterococcus faecium and Enterococcus faecalis). Put plainly: mean geometric MIC, broth micro-dilution. Conditions: 24-hour incubation. Type of test: cell-based.
The test system of the next test is Streptococcus pneumoniae. Put plainly: ED50 in experimentally infected mice. Type of test: in vivo. The conditions noted are these: mice infected with Streptococcus pneumoniae, two doses.
Test [22] concerns vancomycin-resistant enterococci (Enterococcus faecium and Enterococcus faecalis). Description: mean geometric MIC, broth micro-dilution. Type of test: cell-based. The conditions noted are these: 24-hour incubation.
The next test relates to Stapylococcus aureus. Description: ED50 in experimentally infected mice. Type of test: in vivo. Conditions: mice infected with Stapylococcus aureus, two doses.

As to `CNC(CC(C)C)C(=O)NC1C(=O)NC(CC(N)=O)C(=O)NC2C(=O)NC3C(=O)NC(C(=O)NC(C(=O)O)c4cc(O)cc(O)c4-c4cc3ccc4O)C(OC3CC(C)(N)C(O)C(C)O3)c3ccc(c(Cl)c3)Oc3cc2cc(c3OC2OC(CO)C(O)C(O)C2OC2CC(C)(NCc3ccc(SC)cc3)C(O)C(C)O2)Oc2ccc(cc2Cl)C1O` (centres unmarked) [Compound 41, 4-thiomethylbenzyl], the MIC in [1] is at most 0.06 µg/mL; in [2], at most 0.06 µg/mL; in test [3] it was 2 µg/mL (≈ 1.16 µM); in test [4], at most 0.06 µg/mL; in the test on Entercoccus faecium 180, 0.25 µg/mL (≈ 0.145 µM); in test [5], 0.5 µg/mL (≈ 0.289 µM). The MIC was at most 0.06 µg/mL in test [6]; at most 0.06 µg/mL in test [7]; at most 0.06 µg/mL in test [8]; 0.25 µg/mL (≈ 0.145 µM) in [9]; 4 µg/mL (≈ 2.31 µM) in [10]; over 64 µg/mL in the test on Escherichia coli EC14. The MIC is 0.25 µg/mL (≈ 0.145 µM) in test [11]; 2 µg/mL (≈ 1.16 µM) in test [12]; at most 0.06 µg/mL in test [13]; 0.125 µg/mL (≈ 0.0723 µM) in test [14]; 71 µg/mL (≈ 41.1 µM) with Pedicoccus acidilacti; 91 µg/mL (≈ 52.6 µM) against Pediococcus pentosaceus. Also, the MIC with Leuconostoc lactis was 91 µg/mL (≈ 52.6 µM); in test [15] it was at most 0.06 µg/mL; in test [16] it was 0.25 µg/mL (≈ 0.145 µM); in test [17], 91 µg/mL (≈ 52.6 µM); against Entercoccus faecalis 276, at most 0.06 µg/mL; in [18], at most 0.06 µg/mL. Further, the figures for the MIC (in test [19]; against Lactobacillus confusus) were at most 0.06 µg/mL and 64 µg/mL (≈ 37 µM), respectively.
Consider `CNC(CC(C)C)C(=O)NC1C(=O)NC(CC(N)=O)C(=O)NC2C(=O)NC3C(=O)NC(C(=O)NC(C(=O)O)c4cc(O)cc(O)c4-c4cc3ccc4O)C(OC3CC(C)(N)C(O)C(C)O3)c3ccc(c(Cl)c3)Oc3cc2cc(c3OC2OC(CO)C(O)C(O)C2OC2CC(C)(NCc3cccc4c([N+](=O)[O-])cccc34)C(O)C(C)O2)Oc2ccc(cc2Cl)C1O` (centres unmarked) [Compound 25, 5-nitro-1-naphthylmethyl], for which the MIC in test [3] came to 0.5 µg/mL (≈ 0.281 µM); with Entercoccus faecium 180, 0.5 µg/mL (≈ 0.281 µM); in test [5] it was 0.125 µg/mL (≈ 0.0703 µM); in test [9], 0.5 µg/mL (≈ 0.281 µM); in test [20] it was 32 µg/mL (≈ 18 µM); in [10] it was 32 µg/mL (≈ 18 µM). In addition, the MIC was 0.25 µg/mL (≈ 0.141 µM) in [11]; 1 µg/mL (≈ 0.563 µM) in test [12]; 0.25 µg/mL (≈ 0.141 µM) in the test with Entercoccus faecalis 276; at most 0.06 µg/mL in [18]; 0.25 µg/mL (≈ 0.141 µM) in [19]. Further, the ED50 worked out at 0.087 mg/kg/2 in the test on Streptococcus pyogenes, 0.088 mg/kg/2 in the test on Streptococcus pneumoniae and 0.16 mg/kg/2 in the test on Stapylococcus aureus. The “mean geometric MIC, Vancomycin Sensitive Strains” value in test [21] turned out to be 0.22 µg/mL. For the same molecule, the “mean geometric MIC, Vancomycin Resistant Strains” value in test [22] stood at 4.0 µg/mL.
`CNC(CC(C)C)C(=O)NC1C(=O)NC(CC(N)=O)C(=O)NC2C(=O)NC3C(=O)NC(C(=O)NC(C(=O)O)c4cc(O)cc(O)c4-c4cc3ccc4O)C(OC3CC(C)(N)C(O)C(C)O3)c3ccc(c(Cl)c3)Oc3cc2cc(c3OC2OC(CO)C(O)C(O)C2OC2CC(C)(NCC(C)=Cc3ccc(C(C)(C)C)cc3)C(O)C(C)O2)Oc2ccc(cc2Cl)C1O` (centres unmarked) [Compound 42, 2,3-[2-methyl-3-[4-t-butylphenyl]]propenyl]: the MIC in test [1] was at most 0.06 µg/mL; in test [2] it was 1 µg/mL (≈ 0.562 µM); in test [3], 1 µg/mL (≈ 0.562 µM); in [4], 1 µg/mL (≈ 0.562 µM); in the test on Entercoccus faecium 180, 0.25 µg/mL (≈ 0.141 µM); in test [5] it was 0.5 µg/mL (≈ 0.281 µM). For the same molecule, the MIC in [6] was 0.5 µg/mL (≈ 0.281 µM); in [7], at most 0.06 µg/mL; in test [8], at most 0.06 µg/mL; in test [9], 0.5 µg/mL (≈ 0.281 µM); in test [10], 1 µg/mL (≈ 0.562 µM); against Escherichia coli EC14 it was over 64 µg/mL. For the same molecule, the MIC is 0.5 µg/mL (≈ 0.281 µM) in test [11]; 2 µg/mL (≈ 1.12 µM) in test [12]; at most 0.06 µg/mL in test [13]; 1 µg/mL (≈ 0.562 µM) in test [14]; 0.5 µg/mL (≈ 0.281 µM) in test [15]; 2 µg/mL (≈ 1.12 µM) in test [16]. Moreover, the MIC came out at 8 µg/mL (≈ 4.5 µM) with Entercoccus faecalis 276, 1 µg/mL (≈ 0.562 µM) in test [18] and 0.125 µg/mL (≈ 0.0703 µM) in test [19].
With `CNC(CC(C)C)C(=O)NC1C(=O)NC(CC(N)=O)C(=O)NC2C(=O)NC3C(=O)NC(C(=O)NC(C(=O)O)c4cc(O)cc(O)c4-c4cc3ccc4O)C(OC3CC(C)(N)C(O)C(C)O3)c3ccc(c(Cl)c3)Oc3cc2cc(c3OC2OC(CO)C(O)C(O)C2OC2CC(C)(NCc3cccc(Oc4cccc(C(F)(F)F)c4)c3)C(O)C(C)O2)Oc2ccc(cc2Cl)C1O` (centres unmarked) [Compound 111], the “mean geometric MIC, Vancomycin Sensitive Strains” value in [21] is 0.054 µg/mL. Besides, the “mean geometric MIC, Vancomycin Resistant Strains” value in [22] is 0.84 µg/mL. Besides, the MIC was 0.5 µg/mL (≈ 0.271 µM) in the test on Entercoccus faecalis 276, 4 µg/mL (≈ 2.17 µM) in [18] and at most 0.06 µg/mL in [19].
As to `CCCCCOc1ccc(-c2ccc(CNC3(C)CC(OC4C(Oc5c6cc7cc5Oc5ccc(cc5Cl)C(OC5CC(C)(N)C(O)C(C)O5)C5NC(=O)C(NC(=O)C7NC(=O)C(CC(N)=O)NC(=O)C(NC(=O)C(CC(C)C)NC)C(O)c7ccc(c(Cl)c7)O6)c6ccc(O)c(c6)-c6c(O)cc(O)cc6C(C(=O)O)NC5=O)OC(CO)C(O)C4O)OC(C)C3O)cc2)cc1` (centres unmarked) [Compound 40, 4-[4-pentoxyphenyl]benzyl], the MIC is 0.5 µg/mL (≈ 0.271 µM) in test [1]; 4 µg/mL (≈ 2.17 µM) in [2]; 4 µg/mL (≈ 2.17 µM) in test [3]; 4 µg/mL (≈ 2.17 µM) in [4]; 1 µg/mL (≈ 0.542 µM) with Entercoccus faecium 180; 4 µg/mL (≈ 2.17 µM) in test [5]. The MIC in test [6] was 4 µg/mL (≈ 2.17 µM); in test [7], at most 0.06 µg/mL; in [8], 2 µg/mL (≈ 1.08 µM); in test [9], 1 µg/mL (≈ 0.542 µM); in [10] it was 2 µg/mL (≈ 1.08 µM); against Escherichia coli EC14 it was over 64 µg/mL. Moreover, the MIC in test [11] was 2 µg/mL (≈ 1.08 µM); in [12], 2 µg/mL (≈ 1.08 µM); in [13], at most 0.06 µg/mL; in [14], 4 µg/mL (≈ 2.17 µM); in test [15] it was 4 µg/mL (≈ 2.17 µM); in test [16], 8 µg/mL (≈ 4.34 µM). The results for the MIC (against Entercoccus faecalis 276; in [18]; in test [19]) were 2 µg/mL (≈ 1.08 µM), 11 µg/mL (≈ 5.96 µM) and 1 µg/mL (≈ 0.542 µM), respectively.
